In the OligoGym collection:
After the bases stand the sugars from the 5' end (letter, count) and the backbone: PS all phosphorothioate, else s phosphorothioate and o phosphodiester by linkage. Methylation of C is not given here. l = locked nucleic acid (LNA); d = 2'-deoxy (DNA)

Molecular target: SNHG14
Conditions: ASO
[1] = Mouse Primary Neuronal Cell, 0.005 µM

Sequence	target mRNA inhibition (Human Neuronal Cell, 7.5 µM) [%]	also measured
AAAATCTCAACTACCATTT (sugars l6 d7 l2 d2 l2, PS)	41	
AAAATCTCAACTACCATTT (sugars ldldllddddddddlllll, PS)	31	
AAAATCTCAACTACCATTT (sugars lldldlddddddddlllll, PS)	41	
AAAATCTCAACTACCATTTT (sugars ldlddlddddddddldllll, PS)	28	
AAAATCTCAACTACCATTTT (sugars ldlllldddddddddlddll, PS)	50	
AAAATTATTTATACACCATC (sugars lldddldddddddldlllll, PS)	55	
AAAATTATTTATACACCATC (sugars llldldldddddddllldll, PS)	56	
AAAGATCATTCTCAACAA (sugars ldddllddddddlldlll, PS)	33	
AAAGATCATTCTCAACAA (sugars lddlldddddddldllll, PS)	66	
AAAGATCATTCTCAACAA (sugars ldllldddddddlldlll, PS)	65	
AAATCTCAACTACCATTTTT (sugars ldddlddddddddldlllll, PS)	46	
AAATTATTTATACACCATCA (sugars l1 d12 l3 d1 l3, PS)	40	
AAATTATTTATACACCATCA (sugars ldlddldddddddldlldll, PS)	60	
AACAACTCATGCCACA (sugars l2 d10 l4, PS)		target mRNA inhibition (Human Neuronal Cell, 0.2 µM): 53%; target mRNA inhibition (Human Neuronal Cell, 1 µM): 59%
AACCCATTTCTAACAT (sugars l4 d10 l2, PS)		target mRNA inhibition (Human Neuronal Cell, 0.2 µM): 35%; target mRNA inhibition (Human Neuronal Cell, 1 µM): 56%
AAGATCATTCTCAACAAT (sugars l2 d1 l3 d8 l4, PS)	44	
AAGATCATTCTCAACAAT (sugars l4 d9 l5, PS)	52	
AATCTCAACTACCATT (sugars l4 d10 l2, PS)		target mRNA inhibition (Human Neuronal Cell, 0.2 µM): 60%; target mRNA inhibition (Human Neuronal Cell, 1 µM): 66%
AATTATTTATACACCATCAT (sugars ldddldlddddddldddlll, PS)	67	
AATTATTTATACACCATCAT (sugars lddllldddddddldlddll, PS)	71	
AATTATTTATACACCATCAT (sugars ldlldddddddddddldlll, PS)	62	
AATTTTTTTCTTACTATCTT (sugars lddddldddddddldldlll, PS)	50	
AATTTTTTTCTTACTATCTT (sugars ldddldlddddddlldddll, PS)	34	
AATTTTTTTCTTACTATCTT (sugars llllddldddddddldddll, PS)	49	

Sequence	target mRNA inhibition (Human Neuronal Cell, 7.5 µM) [%]	also measured
ACAACTATTATCTTCT (sugars l3 d10 l3, PS)		target mRNA inhibition (Human Neuronal Cell, 0.2 µM): 40%; target mRNA inhibition (Human Neuronal Cell, 1 µM): 57%
ACATCTCATACTTGCT (sugars l2 d11 l3, PS)		target mRNA inhibition [1]: 96.3%
ACATCTCATACTTGCTT (sugars l2 d12 l3, PS)		target mRNA inhibition [1]: 96.9%
ACATTATTATTTAACCT (sugars l3 d11 l3, PS)		target mRNA inhibition (Human Neuronal Cell, 0.2 µM): 6%; target mRNA inhibition (Human Neuronal Cell, 1 µM): 17%
ACCACCTAAGACCTCAA (sugars l2 d11 l4, PS)		target mRNA inhibition (Human Neuronal Cell, 0.2 µM): 38%; target mRNA inhibition (Human Neuronal Cell, 1 µM): 60%
ACCAGCTACAGGAACCTC (sugars l3 d12 l3, PS)		target mRNA inhibition (Human Neuronal Cell, 0.2 µM): -35%; target mRNA inhibition (Human Neuronal Cell, 1 µM): -33%; target mRNA inhibition (Human Neuronal Cell, 5 µM): -60%
ACCTTAAGTAACATTT (sugars l4 d10 l2, PS)		target mRNA inhibition (Human Neuronal Cell, 0.2 µM): 36%; target mRNA inhibition (Human Neuronal Cell, 1 µM): 44%
ACTAATGCAATAACCC (sugars l3 d10 l3, PS)		target mRNA inhibition (Human Neuronal Cell, 0.2 µM): 45%; target mRNA inhibition (Human Neuronal Cell, 1 µM): 28%
ACTCTCACTGTAACTTT (sugars l4 d11 l2, PS)		target mRNA inhibition (Human Neuronal Cell, 0.2 µM): 21%; target mRNA inhibition (Human Neuronal Cell, 1 µM): 35%
ACTCTGCAATACACCAA (sugars llddlddddddldldll, PS)	33	
ACTGTTTATACCCTTTC (sugars l4 d11 l2, PS)		target mRNA inhibition (Human Neuronal Cell, 0.2 µM): 43%; target mRNA inhibition (Human Neuronal Cell, 1 µM): 51%
ACTGTTTATACCCTTTCC (sugars l1 d15 l2, PS)	40	
AGATCATTCTCAACAATT (sugars l1 d3 l2 d6 l6, PS)	54	
AGATCATTCTCAACAATT (sugars l2 d1 l3 d10 l2, PS)	46	
AGATCATTCTCAACAATT (sugars ldllllddddddldddll, PS)	48	
AGATCATTCTCAACAATTA (sugars ldddllddddddldlddll, PS)	62	
AGCAACATTATTAACCAC (sugars l2 d10 l2 d1 l3, PS)	44	
AGCAACATTATTAACCAC (sugars ldllldddddddllldll, PS)	35	
AGCAACATTATTAACCACC (sugars lddldlddddddldddlll, PS)	52	
AGCAACATTATTAACCACC (sugars ldldlddddddddlddlll, PS)	53	
AGCTTTTAACCAGAGTGG (sugars l1 d14 l3, PS)	66	
AGTTCTACTATACTTTC (sugars l1 d2 l2 d8 l4, PS)	57	
AGTTCTACTATACTTTC (sugars l2 d1 l2 d10 l2, PS)	58	
